Measurements taken from patent US9707233B2, “Heterocyclylamines as PI3K inhibitors” (Incyte Corporation, priority 2011, dated 2017).
Where a name gives a salt, the structure may show the parent alone.

What follows are compounds tested against PI3Kδ (p110δ/p85α) (Homo sapiens (Human), UniProt O00329) (assay: PI3Kδ scintillation proximity assay (Example A3)). Settings: 20 μM ATP, 20 μM PIP2, 4 nM PI3Kδ; read-out: PI3Kδ SPA IC50.
Type: biochemical
Procedure, shortened: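 Human PI3Kδ (p110δ/p85α, 4 nM) with 20 μM PIP2 and 20 μM ATP plus [γ-33P]ATP in 20 mM MOPS pH 6.7, 10 mM MgCl2, 5 mM DTT, 0.03% CHAPS, 0.5% DMSO, room temperature. Reaction stopped with EDTA/excess ATP; product captured on WGA SPA beads and counted. IC50 from percent control activity vs log inhibitor.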

PI3Kδ (p110δ/p85α), sequence (O00329 whole entry): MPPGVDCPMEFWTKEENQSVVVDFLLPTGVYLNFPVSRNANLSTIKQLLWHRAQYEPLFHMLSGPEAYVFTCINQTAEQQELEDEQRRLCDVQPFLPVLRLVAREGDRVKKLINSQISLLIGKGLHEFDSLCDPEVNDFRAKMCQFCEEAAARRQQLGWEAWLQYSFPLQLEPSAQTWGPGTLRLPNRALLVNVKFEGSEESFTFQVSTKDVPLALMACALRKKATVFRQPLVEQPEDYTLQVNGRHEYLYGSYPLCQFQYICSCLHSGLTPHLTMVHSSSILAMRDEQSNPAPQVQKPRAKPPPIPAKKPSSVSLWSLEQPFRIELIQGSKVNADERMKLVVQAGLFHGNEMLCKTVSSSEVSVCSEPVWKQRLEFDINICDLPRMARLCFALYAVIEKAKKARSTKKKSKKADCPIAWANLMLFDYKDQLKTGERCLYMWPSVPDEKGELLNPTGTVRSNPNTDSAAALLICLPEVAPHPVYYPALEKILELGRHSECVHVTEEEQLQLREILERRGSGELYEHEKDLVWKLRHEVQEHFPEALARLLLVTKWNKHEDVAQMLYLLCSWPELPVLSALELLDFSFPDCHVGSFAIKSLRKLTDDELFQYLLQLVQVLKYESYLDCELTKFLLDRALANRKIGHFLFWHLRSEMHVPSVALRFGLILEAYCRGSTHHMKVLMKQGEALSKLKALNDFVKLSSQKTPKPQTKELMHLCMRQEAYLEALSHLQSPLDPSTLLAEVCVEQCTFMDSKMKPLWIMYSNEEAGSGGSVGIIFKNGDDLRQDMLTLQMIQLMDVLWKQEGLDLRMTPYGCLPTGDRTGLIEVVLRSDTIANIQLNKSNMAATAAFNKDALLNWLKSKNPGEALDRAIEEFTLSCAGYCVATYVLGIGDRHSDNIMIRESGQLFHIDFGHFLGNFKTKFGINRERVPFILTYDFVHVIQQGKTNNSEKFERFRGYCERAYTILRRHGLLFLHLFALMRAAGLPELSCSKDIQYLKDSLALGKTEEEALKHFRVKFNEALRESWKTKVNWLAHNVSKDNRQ
PI3Kδ (p110δ/p85α), sequence (P27986 whole entry partner): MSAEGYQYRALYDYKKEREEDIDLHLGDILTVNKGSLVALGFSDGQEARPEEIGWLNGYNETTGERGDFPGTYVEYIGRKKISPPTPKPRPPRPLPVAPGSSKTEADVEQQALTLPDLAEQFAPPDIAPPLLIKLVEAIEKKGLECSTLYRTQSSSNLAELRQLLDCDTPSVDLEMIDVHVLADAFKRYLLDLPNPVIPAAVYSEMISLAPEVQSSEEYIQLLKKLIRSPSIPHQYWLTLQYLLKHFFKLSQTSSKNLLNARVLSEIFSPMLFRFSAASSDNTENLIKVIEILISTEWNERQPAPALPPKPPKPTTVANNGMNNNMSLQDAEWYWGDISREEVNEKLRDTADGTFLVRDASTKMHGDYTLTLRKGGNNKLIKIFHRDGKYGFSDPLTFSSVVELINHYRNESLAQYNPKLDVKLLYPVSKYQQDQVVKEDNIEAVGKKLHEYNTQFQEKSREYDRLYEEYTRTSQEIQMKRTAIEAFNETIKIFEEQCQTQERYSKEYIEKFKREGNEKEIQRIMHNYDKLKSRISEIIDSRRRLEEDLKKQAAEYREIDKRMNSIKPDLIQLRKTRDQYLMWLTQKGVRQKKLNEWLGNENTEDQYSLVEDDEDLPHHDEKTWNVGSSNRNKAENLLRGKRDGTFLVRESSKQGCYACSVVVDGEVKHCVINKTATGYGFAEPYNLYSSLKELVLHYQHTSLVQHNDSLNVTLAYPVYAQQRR

**Q.** COc1c(C(C)n2nc(C)c3c(N)ncnc32)cc(Cl)c(C)c1-c1cnn(CCO)c1 (single isomer, unassigned) [20 (1st peak), 2-(4-(3-(1-(4-Amino-3-methyl-1H-pyrazolo[3,4-d]pyrimidin-1-yl)ethyl)-5-chloro-2-methoxy-6-methylphenyl)-1H-pyrazol-1-yl)ethanol] was tested. Which IC50 did it give?
**A.** ≤ 10 nM

**Q.** For COc1c(C(C)n2nc(C)c3c(N)ncnc32)cc(Cl)c(C)c1-c1cnn(CCO)c1 (single isomer, unassigned) [20 (2nd peak), 2-(4-(3-(1-(4-Amino-3-methyl-1H-pyrazolo[3,4-d]pyrimidin-1-yl)ethyl)-5-chloro-2-methoxy-6-methylphenyl)-1H-pyrazol-1-yl)ethanol], which IC50 is on record?
**A.** 50 to 200 nM

**Q.** With COc1c(C(C)n2ccc(=O)c3c(N)ncnc32)cc(Cl)c(C)c1-c1ccc(C(=O)N(C)C)nc1 (single isomer, unassigned) [25 (1st peak), 5-{3-[1-(4-Amino-5-oxopyrido[2,3-d]pyrimidin-8(5H)-yl)ethyl]-5-chloro-2-methoxy-6-methylphenyl}-N,N-dimethylpyridine-2-carboxamide] as the compound, how does the IC50 read?
**A.** 200 to 500 nM

**Q.** How did the IC50 turn out when COc1c(C(C)n2ccc(=O)c3c(N)ncnc32)cc(Cl)c(C)c1-c1ccc(C(=O)N(C)C)nc1 (single isomer, unassigned) [25 (2nd peak), 5-{3-[1-(4-Amino-5-oxopyrido[2,3-d]pyrimidin-8(5H)-yl)ethyl]-5-chloro-2-methoxy-6-methylphenyl}-N,N-dimethylpyridine-2-carboxamide] was run?
**A.** ≤ 10 nM

**Q.** For COc1c(C(C)n2nc(C)c3c(N)ncnc32)cc(Cl)c(F)c1C1CN(C[C@H](C)O)C1 (single isomer, unassigned) [68 (1st peak)], which IC50 is on record?
**A.** ≤ 10 nM

**Q.** COc1c(C(C)n2nc(C)c3c(N)ncnc32)cc(Cl)c(C#N)c1-c1ccc(C(=O)N(C)C)nc1 (single isomer, unassigned) [313 (2nd peak), 5-{3-[1-(4-amino-3-methyl-1H-pyrazolo[3,4-d]pyrimidin-1-yl)ethyl]-5-chloro-6-cyano-2-methoxyphenyl}-N,N-dimethylpyridine-2-carboxamide] was tested. Which IC50 did it give?
**A.** ≤ 10 nM

**Q.** With CCOc1c(C(C)n2nc(C)c3c(N)ncnc32)cc(C)c(C#N)c1-c1ccc(C(=O)N(C)C)nc1 (single isomer, unassigned) [314 (2nd peak), 5-{3-[1-(4-amino-3-methyl-1H-pyrazolo[3,4-d]pyrimidin-1-yl)ethyl]-6-cyano-2-ethoxy-5-methylphenyl}-N,N-dimethylpyridine-2-carboxamide] as the compound, how does the IC50 read?
**A.** ≤ 10 nM

**Q.** How did the IC50 turn out when CCOc1c(C(C)n2nc(C)c3c(N)ncnc32)cc(Cl)c(C#N)c1C1CNC(=O)O1 (single isomer, unassigned) [323 (1st peak), 4-[1-(4-amino-3-methyl-1H-pyrazolo[3,4-d]pyrimidin-1-yl)ethyl]-6-chloro-3-ethoxy-2-(2-oxo-1,3-oxazolidin-5-yl)benzonitrile] was run?
**A.** ≤ 10 nM

**Q.** How did the IC50 turn out when CCOc1c(C(C)n2nc(C)c3c(N)ncnc32)cc(Cl)c(C#N)c1C1CNC(=O)O1 (single isomer, unassigned) [323 (3rd peak), 4-[1-(4-amino-3-methyl-1H-pyrazolo[3,4-d]pyrimidin-1-yl)ethyl]-6-chloro-3-ethoxy-2-(2-oxo-1,3-oxazolidin-5-yl)benzonitrile] was run?
**A.** 50 to 200 nM

**Q.** For CCOc1c(C(C)n2nc(C)c3c(N)ncnc32)cc(Cl)c(C#N)c1C1CNC(=O)O1 (single isomer, unassigned) [323 (4th peak), 4-[1-(4-amino-3-methyl-1H-pyrazolo[3,4-d]pyrimidin-1-yl)ethyl]-6-chloro-3-ethoxy-2-(2-oxo-1,3-oxazolidin-5-yl)benzonitrile], which IC50 is on record?
**A.** ≤ 10 nM

**Q.** With COc1c(C(C)n2nc(C)c3c(N)ncnc32)cc(Cl)c(C)c1C1CNC(=O)CO1 (single isomer, unassigned) [324 (1st peak), 6-{3-[1-(4-Amino-3-methyl-1H-pyrazolo[3,4-d]pyrimidin-1-yl)ethyl]-5-chloro-2-methoxy-6-methylphenyl}morpholin-3-one] as the compound, how does the IC50 read?
**A.** 50 to 200 nM

**Q.** For COc1c(C(C)n2nc(C)c3c(N)ncnc32)cc(Cl)c(C)c1C1CNC(=O)CO1 (single isomer, unassigned) [324 (2nd peak), 6-{3-[1-(4-Amino-3-methyl-1H-pyrazolo[3,4-d]pyrimidin-1-yl)ethyl]-5-chloro-2-methoxy-6-methylphenyl}morpholin-3-one], which IC50 is on record?
**A.** ≤ 10 nM

**Q.** With COc1c(C(C)n2nc(C)c3c(N)ncnc32)cc(Cl)c(C)c1C1CN(C(C)C)C1 (single isomer, unassigned) [Example 1, 1-{1-[5-Chloro-3-(1-isopropylazetidin-3-yl)-2-methoxy-4-methylphenyl]ethyl}-3-methyl-1H-pyrazolo[3,4-d]pyrimidin-4-amine bis(trifluoroacetate)] as the compound, how does the IC50 read?
**A.** ≤ 10 nM

**Q.** COc1c(C(C)n2nc(C)c3c(N)ncnc32)cc(Cl)c(C)c1-c1ccc(C(=O)N(C)C)c(F)c1 (single isomer, unassigned) [Example 21, 3′-[1-(4-Amino-3-methyl-1H-pyrazolo[3,4-d]pyrimidin-1-yl)ethyl]-5′-chloro-3-fluoro-2′-methoxy-N,N,6′-trimethylbiphenyl-4-carboxamide trifluoroacetate] was tested. Which IC50 did it give?
**A.** ≤ 10 nM

**Q.** For CNC(=O)c1ccc(-c2c(C)c(Cl)cc(C(C)n3nc(C)c4c(N)ncnc43)c2OC)cc1F (single isomer, unassigned) [Example 22, 3′-[1-(4-Amino-3-methyl-1H-pyrazolo[3,4-d]pyrimidin-1-yl)ethyl]-5′-chloro-3-fluoro-2′-methoxy-N,6′-dimethylbiphenyl-4-carboxamide trifluoroacetate], which IC50 is on record?
**A.** ≤ 10 nM

**Q.** COc1c(C(C)n2nc(C)c3c(N)ncnc32)cc(Cl)c(C)c1C1CN(C(=O)C2CC2)C1 (single isomer, unassigned) [Example 119, 1-(1-{5-Chloro-3-[1-(cyclopropylcarbonyl)azetidin-3-yl]-2-methoxy-4-methylphenyl}ethyl)-3-methyl-1H-pyrazolo[3,4-d]pyrimidin-4-amine] was tested. Which IC50 did it give?
**A.** ≤ 10 nM

**Q.** How did the IC50 turn out when COc1c(C(C)n2nc(C)c3c(N)ncnc32)cc(Cl)c(C)c1C1CN(C(=O)c2cnoc2C)C1 (single isomer, unassigned) [Example 120, 1-[1-(5-Chloro-2-methoxy-4-methyl-3-{1-[(5-methylisoxazol-4-yl)carbonyl]azetidin-3-yl}phenyl)ethyl]-3-methyl-1H-pyrazolo[3,4-d]pyrimidin-4-amine] was run?
**A.** ≤ 10 nM

**Q.** COc1c(C(C)n2nc(C)c3c(N)ncnc32)cc(Cl)c(C)c1C1CN(C(=O)C2(O)CC2)C1 (single isomer, unassigned) [Example 122, 1-[(3-{3-[1-(4-Amino-3-methyl-1H-pyrazolo[3,4-d]pyrimidin-1-yl)ethyl]-5-chloro-2-methoxy-6-methylphenyl}azetidin-1-yl)carbonyl]cyclopropanol] was tested. Which IC50 did it give?
**A.** ≤ 10 nM

**Q.** Which IC50 does the source give for COc1c(C(C)n2nc(C)c3c(N)ncnc32)cc(Cl)c(C)c1C1CN(C(=O)C(C)(C)O)C1 (single isomer, unassigned) [Example 123, 1-(3-{3-[1-(4-Amino-3-methyl-1H-pyrazolo[3,4-d]pyrimidin-1-yl)ethyl]-5-chloro-2-methoxy-6-methylphenyl}azetidin-1-yl)-2-methyl-1-oxopropan-2-ol] here?
**A.** ≤ 10 nM

**Q.** COc1c(C(C)n2nc(C)c3c(N)ncnc32)cc(Cl)c(C)c1C1CN(C(=O)c2cn[nH]c2)C1 (single isomer, unassigned) [Example 124, 1-(1-{5-Chloro-2-methoxy-4-methyl-3-[1-(1H-pyrazol-4-ylcarbonyl)azetidin-3-yl]phenyl}ethyl)-3-methyl-1H-pyrazolo[3,4-d]pyrimidin-4-amine] was tested. Which IC50 did it give?
**A.** ≤ 10 nM

**Q.** How did the IC50 turn out when COc1c(C(C)n2nc(C)c3c(N)ncnc32)cc(Cl)c(C)c1-c1cncnc1 (single isomer, unassigned) [Example 168, 1-(1-(5-chloro-2-methoxy-4-methyl-3-(pyrimidin-5-yl)phenyl)ethyl)-3-methyl-1H-pyrazolo[3,4-d]pyrimidin-4-amine] was run?
**A.** ≤ 10 nM

**Q.** Which IC50 does the source give for COc1c(C(C)n2nc(C)c3c(N)ncnc32)cc(Cl)c(C)c1-c1cnc(N)nc1 (single isomer, unassigned) [Example 169, 1-(1-(3-(2-aminopyrimidin-5-yl)-5-chloro-2-methoxy-4-methylphenyl)ethyl)-3-methyl-1H-pyrazolo[3,4-d]pyrimidin-4-amine] here?
**A.** ≤ 10 nM

**Q.** COc1c(C(C)n2nc(C)c3c(N)ncnc32)cc(Cl)c(C)c1-c1cncc(C#N)c1 (single isomer, unassigned) [Example 170, 5-(3-(1-(4-amino-3-methyl-1H-pyrazolo[3,4-d]pyrimidin-1-yl)ethyl)-5-chloro-2-methoxy-6-methylphenyl)nicotinonitrile] was tested. Which IC50 did it give?
**A.** ≤ 10 nM

**Q.** For COc1c(C(C)n2nc(C)c3c(N)ncnc32)cc(Cl)c(C)c1-c1ccc(N)nc1 (single isomer, unassigned) [Example 171, 1-(1-(3-(6-aminopyridin-3-yl)-5-chloro-2-methoxy-4-methylphenyl)ethyl)-3-methyl-1H-pyrazolo[3,4-d]pyrimidin-4-amine], which IC50 is on record?
**A.** ≤ 10 nM

**Q.** For COc1c(C(C)n2nc(C)c3c(N)ncnc32)cc(Cl)c(C)c1-c1cncc(S(C)(=O)=O)c1 (single isomer, unassigned) [Example 172, 1-(1-(5-chloro-2-methoxy-4-methyl-3-(5-(methylsulfonyl)pyridin-3-yl)phenyl)ethyl)-3-methyl-1H-pyrazolo[3,4-d]pyrimidin-4-amine], which IC50 is on record?
**A.** ≤ 10 nM

**Q.** Which IC50 does the source give for CNC(=O)c1ccc(-c2c(C)c(Cl)cc(C(C)n3nc(C)c4c(N)ncnc43)c2OC)cn1 (single isomer, unassigned) [Example 173, 5-(3-(1-(4-amino-3-methyl-1H-pyrazolo[3,4-d]pyrimidin-1-yl)ethyl)-5-chloro-2-methoxy-6-methylphenyl)-N-methylpicolinamide] here?
**A.** ≤ 10 nM
